Laboratory results from patent US11578055B2, “Triazacyclododecansulfonamide (“TCD”)-based protein secretion inhibitors” (KEZAR LIFE SCIENCES, priority 2018, dated 2023).

System: B16F10 cells
Assay: Efficacy study: tumor growth and body weight in a B16F10 model
Format: in vivo, C57BL/6 mice
Conditions: B16F10 refractory model, once-a-week dosing, compared to anti-PD-1 therapy
Method: Efficacy Study: Effect of Compound A87 on Tumor Growth and Body Weight in a B16F10 Model Comparted to Anti-PD-1 Therapy.
Female C57BL/6 mice (7-8 week old) were injected in the flank subcutaneously with 5×10^6 B16F10 cells in 0.1 ml on Day 0. On Day 3, compound A87 formulated in 10% ETOH/10% Kolliphor EL was administered IV 30 mg/kg QW, IV 10 mg/kg D1D2, or IP 15 mg/kg QOD. Anti-PD1 antibody treatment (RMP1-14 from Bioxcell, 200 μg) was administered i.p. on a QOD×3 dose schedule. Tumor size was monitored with a digital caliper (Fowler) every 2-3 d until reaching a size of 1.5-2.0 cm and expressed as volume (length×width×height). B16F10, a melanoma line, was obtained from ATCC. C57/BL6 mice were purchased from Charles rivers laboratories.

C[C@H]1CN(S(=O)(=O)c2ccc(N(C)C)cc2)CCCN(CC2CCCCC2)CCCN(S(=O)(=O)N2CCc3cc(Cl)ccc3C2)C1 [A87] was tested, and the tumor growth inhibition was “superior efficacy”.
